Source: patent publication US11186554B2, “Non-fused tricyclic compounds” (VIVACE THERAPEUTICS, INC., priority 2017, dated 2021)
Where two headings read alike, the source gives them in different places.

System: firefly luciferase activity
Test: Dual-Glo firefly/renilla luciferase reporter assay in cells
Type: cell-based
[1] = 24 hrs compound treatment, starting from 3 uM, 1:3 dilution, 10 points, read-out: Firefly Luciferase IC50
[2] = 24 h, read-out: Firefly Luciferase IC50 (μM)

Row | Compound | IC50 [1] [µM] | IC50 [2] [µM]
1 | OC1(Cn2nnc(-c3ccccc3Nc3ccc(C(F)(F)F)cc3)n2)CCN(c2ccccc2)C1 (stereo not shown) [Compound 172] | 1 to 5 | 
2 | OCCn1nnc(-c2ccccc2Nc2ccc(Cl)cc2)n1 [Compound 208, 2-(5-(2-((4-chlorophenyl)amino)phenyl)-2H-tetrazol-2-yl)ethan-1-ol] |  | 0.1 to 1
3 | OCCn1nnc(-c2cnccc2Nc2ccc(C(F)(F)F)cc2)n1 [Compound 78, 2-[5-[4-[4-(trifluoromethyl)anilino]-3-pyridyl]tetrazol-2-yl]ethanol] |  | 1 to 5
4 | OCCn1nnc(-c2ccccc2Nc2ccccc2F)n1 [Compound 36, 2-(5-(2-((2-fluorophenyl)amino)phenyl)-2H-tetrazol-2-yl)ethanol] |  | 1 to 5
5 | CNC(=O)Cn1nnc(-c2ccccc2Nc2ccc(OC(F)(F)F)cc2)n1 [Compound 46, N-methyl-2-[5-[2-[4-(trifluoromethoxy)anilino]phenyl]tetrazol-2-yl]acetamide] |  | 0.1 to 1
6 | COc1ccc(Nc2ccccc2-c2nnn(CCO)n2)cc1 [Compound 12, 2-[5-[2-(4-methoxyanilino)phenyl]tetrazol-2-yl]ethanol] |  | 0.1 to 1
7 | CCN(CC)C(=O)Cn1nnc(-c2ccccc2Nc2ccc(C(F)(F)F)cc2)n1 [Compound 44, N,N-diethyl-2-[5-[2-[4-(trifluoromethyl)anilino]phenyl]tetrazol-2-yl]acetamide] | 1 to 5 | 
8 | OCCn1nnc(-c2ccccc2Nc2ccc(SC(F)F)cc2)n1 [Compound 31, 2-[5-[2-[4-(difluoromethylsulfanyl)anilino]phenyl]tetrazol-2-yl]ethanol] |  | 0.1 to 1
9 | OCCn1cnc(-c2ccccc2Nc2cccc(C(F)(F)F)c2)n1 [Compound 39, 2-(3-(2-((3-(trifluoromethyl)phenyl)amino)phenyl)-1H-1,2,4-triazol-1-yl)ethanol] |  | 1 to 5
10 | OCCn1nnc(-c2ccccc2Nc2cc(Cl)c(Cl)c(Cl)c2)n1 [Compound 253, 2-(5-(2-((3,4,5-trichlorophenyl)amino)phenyl)-2H-tetrazol-2-yl)ethanol] | 1 to 5 | 
11 | CN(C)CCCn1nnc(-c2ccccc2Nc2ccc(C(F)(F)F)cc2)n1 [Compound 62, 2-(2-(3-(dimethylamino)propyl)-2H-tetrazol-5-yl)-N-(4-(trifluoromethyl)phenyl) Aniline] | 1 to 5 | 
12 | O=C(Cn1nnc(-c2ccccc2Nc2ccc(C(F)(F)F)cc2)n1)C1CC1 [Compound 121, 1-cyclopropyl-2-[5-[2-[4-(trifluoromethyl)anilino]phenyl]tetrazol-2-yl]ethanone] |  | 0.1 to 1
13 | COc1ccc(-c2nnn(CCO)n2)c(Nc2ccc(C(F)(F)F)cc2)c1 [Compound 241, 2-[5-[4-methoxy-2-[4-(trifluoromethyl)anilino]phenyl]tetrazol-2-yl]ethanol] |  | < 0.1
14 | OCCn1nnc(-c2cc(OC(F)(F)F)ccc2Nc2ccc(C(F)(F)F)cc2)n1 [Compound 261, 2-(5-(5-(trifluoromethoxy)-2-((4-(trifluoromethyl)phenyl)amino)phenyl)-2H-tetrazol-2-yl)ethanol] |  | 0.1 to 1
15 | OCCn1nnc(-c2ccccc2Nc2cccc(C(F)(F)F)c2)n1 [Compound 3, 2-[5-[2-[3-(trifluoromethyl)anilino]phenyl]tetrazol-2-yl]ethanol] | 1 to 5 | 
16 | OCCn1nnc(-c2ccccc2Nc2ccc(F)cc2F)n1 [Compound 28, 2-(5-(2-((2,4-difluorophenyl)amino)phenyl)-2H-tetrazol-2-yl)ethan-1-ol] | 0.1 to 1 | 
17 | O[C@H]1CNC[C@@H]1n1nnc(-c2ccccc2Nc2ccc(C(F)(F)F)cc2)n1 [Compound 234, (3S,4S)-4-(5-(2-((4-(trifluoromethyl)phenyl)amino)phenyl)-2H-tetrazol-2-yl)pyrrolidin-3-ol] | 0.1 to 1 | 
18 | FC(F)(F)c1ccc(Nc2ccccc2-c2nnn(Cc3ccncc3)n2)cc1 [Compound 41, 2-[2-(4-pyridylmethyl)tetrazol-5-yl]-N-[4-(trifluoromethyl)phenyl]aniline] | 0.1 to 1 | 
19 | OCCn1nnc(-c2ccc(Cl)cc2Nc2ccc(C(F)(F)F)cc2)n1 [Compound 239, 2-(5-(4-chloro-2-((4-(trifluoromethyl)phenyl)amino)phenyl)-2H-tetrazol-2-yl)ethanol] |  | < 0.1
20 | CS(=O)(=O)NCCn1nnc(-c2ccccc2Nc2ccc(C(F)(F)F)cc2)n1 [Compound 93, N-[2-[5-[2-[4-(trifluoromethyl)anilino]phenyl]tetrazol-2-yl]ethyl]methane Sulfonamide] | 1 to 5 | 
21 | FC(F)OCCn1nnc(-c2ccccc2Nc2ccc(C(F)(F)F)cc2)n1 [Compound 183, 2-(2-(2-(difluoromethoxy)ethyl)-2H-tetrazol-5-yl)-N-(4-(trifluoromethyl)phenyl)aniline] |  | 0.1 to 1

The next lines start with results.

Row | IC50 [1] [µM] | Compound | IC50 [2] [µM]
22 | < 0.1 | OC1(Cn2nnc(-c3ccccc3Nc3ccc(C(F)(F)F)cc3)n2)CCC1 [Compound 169, 1-((5-(2-((4-(Trifluoromethyl)phenyl)amino)phenyl)-2H-tetrazol-2-yl)methyl)cyclobutanol] | 
23 | 0.1 to 1 | CNCCn1nnc(-c2ccccc2Nc2ccc(C(F)(F)F)cc2)n1 [Compound 219, 2-(2-(2-(methylamino)ethyl)-2H-tetrazol-5-yl)-N-(4-(trifluoromethyl)phenyl) Aniline] | 
24 | 0.1 to 1 | OC1(Cn2nnc(-c3ccccc3Nc3ccc(C(F)(F)F)cc3)n2)CCNC1 (stereo not shown) [Compound 153, 3-((5-(2-((4-(trifluoromethyl)phenyl)amino)phenyl)-2H-tetrazol-2-yl)methyl)pyrrolidin-3-ol] | 
25 | < 0.1 | OC(Cn1nnc(-c2ccccc2Nc2ccc(C(F)(F)F)cc2)n1)C1CC1 (stereo not shown) [Compound 127, 1-cyclopropyl-2-[5-[2-[4-(trifluoromethyl)anilino]phenyl]tetrazol-2-yl]ethanol] | 
26 | 0.1 to 1 | O=C1NCC(Cn2nnc(-c3ccccc3Nc3ccc(C(F)(F)F)cc3)n2)N1 (stereo not shown) [Compound 167, 4-((5-(2-((4-(trifluoromethyl)phenyl)amino)phenyl)-2H-tetrazol-2-yl)methyl)imidazolidin-2-one] | 
27 | 0.1 to 1 | NCC(CO)n1nnc(-c2ccccc2Nc2ccc(C(F)(F)F)cc2)n1 (stereo not shown) [Compound 259, 3-amino-2-(5-(2-((4-(trifluoromethyl)phenyl)amino)phenyl)-2H-tetrazol-2-yl)propan-1-ol] | 
28 | < 0.1 | CCC(O)Cn1nnc(-c2ccccc2Nc2ccc(C(F)(F)F)cc2)n1 (stereo not shown) [Compound 139, 1-(5-(2-((4-(trifluoromethyl)phenyl)amino)phenyl)-2H-tetrazol-2-yl)butan-2-ol] | 
29 | < 0.1 | CC(C)(O)Cn1nnc(-c2ccccc2Nc2ccc(C(F)(F)F)cc2)n1 [Compound 106] | 
30 | 0.1 to 1 | C[C@H](c1ccccc1)N1C(=O)OC[C@H]1Cn1nnc(-c2ccccc2Nc2ccc(C(F)(F)F)cc2)n1 [Compound 132, (4R)-3-[(1R)-1-phenylethyl]-4-[[5-[2-[4-(trifluoromethyl)anilino]phenyl]tetrazol-2-yl]methyl]oxazolidin-2-one] | 
31 | 0.1 to 1 | OC1(Cn2nnc(-c3ccccc3Nc3ccc(C(F)(F)F)cc3)n2)CCCOC1 (stereo not shown) [Compound 142, 3-[[5-[2-[4-(trifluoromethyl)anilino]phenyl]tetrazol-2-yl]methyl]tetra hydropyran-3-ol] | 
32 | < 0.1 | CCOC(=O)Cn1cc(-c2ccccc2Nc2ccc(C(F)(F)F)cc2)cn1 [Compound 60, ethyl 2-(4-(2-((4-(trifluoromethyl)phenyl)amino)phenyl)-1H-pyrazol-1-yl)acetate] | 
33 | < 0.1 | OCCCn1nnc(-c2ccccc2Nc2ccc(C(F)(F)F)cc2)n1 [Compound 98, 3-(5-(2-((4-(trifluoromethyl)phenyl)amino)phenyl)-2H-tetrazol-2-yl)propan-1-01] | 
34 | 0.1 to 1 | CC(=O)N1CCC(O)(Cn2nnc(-c3ccccc3Nc3ccc(C(F)(F)F)cc3)n2)C1 (stereo not shown) [Compound 154, 1-(3-hydroxy-3-((5-(2-((4-(trifluoromethyl)phenyl)amino)phenyl)-2H-tetrazol-2-yl)methyl)pyrrolidin-1-yl)ethanone] | 
35 | < 0.1 | OCCn1nnc(-c2ccccc2Nc2ccc(C(F)(F)F)c(Cl)c2)n1 [Compound 246, 2-(5-(2-((3-chloro-4-(trifluoromethyl)phenyl)amino)phenyl)-2H-tetrazol-2-yl)ethanol] | 
36 | 0.1 to 1 | O=C(Cn1nnc(-c2ccccc2Nc2ccc(C(F)(F)F)cc2)n1)N1CCCC1 [Compound 45, 1-pyrrolidin-1-yl-2-[5-[2-[4-(trifluoromethyl)anilino]phenyl]tetrazol-2-yl]ethanone] | 
37 | 0.1 to 1 | OCCn1nnc(-c2ccccc2Nc2ccc(SC(F)(F)F)cc2)n1 [Compound 248, 2-(5-(2-((4-((trifluoromethyl)thio)phenyl)amino)phenyl)-2H-tetrazol-2-yl)ethanol] | 
38 | < 0.1 | OCCn1nnc(-c2cc(F)ccc2Nc2ccc(C(F)(F)F)cc2)n1 [Compound 175, 2-[5-[5-fluoro-2-[4-(trifluoromethyl)anilino]phenyl]tetrazol-2-yl]ethanol] | 
39 | 0.1 to 1 | COC1CCCC1n1nnc(-c2ccccc2Nc2ccc(C(F)(F)F)cc2)n1 (stereo not shown) [Compound 214, 2-(2-(2-methoxycyclopentyl)-2H-tetrazol-5-yl)-N-(4-(trifluoromethyl)phenyl) Aniline] | 
40 | 0.1 to 1 | CCOC(=O)Cn1cc(-c2ccccc2Nc2ccc(C(F)(F)F)cc2)c(C)n1 [Compound 76, ethyl 2-[3-methyl-4-[2-[4-(trifluoromethyl)anilino]phenyl]pyrazol-1-yl]acetate] | 
41 | 0.1 to 1 | CC(=O)N1CCCC(O)(Cn2nnc(-c3ccccc3Nc3ccc(C(F)(F)F)cc3)n2)C1 (stereo not shown) [Compound 155, 1-(3-hydroxy-3-((5-(2-((4-(trifluoromethyl)phenyl)amino)phenyl)-2H-tetrazol-2-yl)methyl)piperidin-1-yl) Ethanone] | 
42 | 0.1 to 1 | OC1(Cn2nnc(-c3ccccc3Nc3ccc(C(F)(F)F)cc3)n2)CCOCC1 [Compound 138, 4-[[5-[2-[4-(trifluoromethyl)anilino]phenyl]tetrazol-2-yl]methyl]tetrahydropyran-4-ol] | 
43 | < 0.1 | FC(F)(F)c1ccc(Nc2ccccc2-c2nnn(C3COC3)n2)cc1 [Compound 123, 2-[2-(oxetan-3-yl)tetrazol-5-yl]-N-[4-(trifluoromethyl)phenyl]aniline] | 
